Data from patent US20230126447A1, “OCULAR DRUG DEPOT FOR COMPLEMENT-MEDIATED DISORDERS” (priority 2020, published 2023).

Assay: Ocular tissue and plasma pharmacokinetics, 50 mg/kg BID oral, Dutch Belted rabbits (Example 4/5)
Type: in vivo
Conditions: DB rabbit; for Mean Choroid-RPE concentration / Mean Iris-Ciliary Body concentration / Mean plasma concentration / Mean retina concentration / Optic Nerve concentration / Vitreous concentration: 50 mg/kg BID oral; for Mean Choroid-RPE concentration / Mean Iris-Ciliary Body concentration / Mean plasma concentration / Mean retina concentration: 50 mg/kg
Experimental: Study design, including group designation and dose levels, are outlined in Table 15. […] Two Dutch Belted rabbits received vehicle only oral gavage doses for tolerability assessment. […] The dose volume was 5 mL/kg/dose for all groups. Safety was assessed with toxicological and ophthalmic examinations, including slit lamp biomicroscopy, indirect ophthalmoscopy, rebound tonometry, and ultrasonic corneal pachymetry.
For the pharmacokinetic determination, a single blood sample was taken from each rabbit from Groups 1 and 4 at one hour post-dose on Day 15, Group 2 at one hour post-dose on Day 8, and Group 3 at pre-dose, 1, 6, 24, 96, 168, and 240 hours post-dose on Day 15, with the eyes collected at the same time as blood sampling. Plasma, vitreous humor (VH), retina, choroid-retina pigmented epithelium (Choroid-RPE), optic nerve (ON), and iris-ciliary body (I-CB) were analyzed by LC-MS/MS to quantify test article concentrations. The lower limit of quantitation (LLOQ) in plasma and vitreous humor was 1.0 ng/mL. The LLOQ was 6.0 ng/g in retina, choroid-RPE, and I-CB and the optic nerve LLOQ was 15 ng/g, assuming tissue density of 1 g/mL where relevant. […]

[1] = Choroid-RPE, 50 mg/kg BID, Day 15
[2] = Iris-Ciliary Body, 50 mg/kg BID, Day 15
[3] = Optic Nerve, 50 mg/kg BID, Day 15
[4] = Vitreous Humor, 50 mg/kg BID, Day 15
[5] = male, Dutch Belted, po, Choroid-RPE, 50 mg/kg BID, Day 15
[6] = male, Dutch Belted, po, Iris-Ciliary Body, 50 mg/kg BID, Day 15
[7] = male, Dutch Belted, po, Optic Nerve, 50 mg/kg BID, Day 15

For `CC(=O)c1nn(CC(=O)N2C[C@H](F)C[C@H]2C(=O)Nc2cccc(Br)n2)c2ccc(-c3cnc(C)nc3)cc12` [Compound 1, (2S,4R)-1-(2-(3-Acetyl-5-(2-methylpyrimidin-5-yl)-1H-indazol-1-yl)acetyl)-N-(6-bromopyridin-2-yl)-4-fluoropyrrolidine-2-carboxamide], the AUC(0-t) [1] was 274000 ng·h/g, the “AUC(0-∞)” value [1] was 292000 ng·h/g and the Tlast [1] was 240 h. For the same compound, the “Optic nerve concentration after 24 hours post-dose (non-detectable)” value (50 mg/kg BID for 14 days) was under 1.0 ng/mL, the “Plasma concentration after 24 hours post-dose (non-detectable)” value (50 mg/kg BID for 14 days) was under 1.0 ng/mL and the “Vitreous humor concentration after 24 hours post-dose (non-detectable)” value (50 mg/kg BID for 14 days) was under 1.0 ng/mL. The “Mean Choroid-RPE concentration” value (Day 15, 0 h) was 3918 ± 950 ng/g, the “Mean Iris-Ciliary Body concentration” value (Day 15, 0 h) was 5076 ± 586 ng/g and the Mean plasma concentration (Day 15, 0 h) was 104 ± 68 ng/mL. For the same compound, the Mean retina concentration (Day 15, 0 h) was 159 ± 87.9 ng/g, the “Mean Choroid-RPE concentration” value (Day 15, 1 h) was 8025 ± 2350 ng/g and the “Mean Iris-Ciliary Body concentration” value (Day 15, 1 h) was 11475 ± 2022 ng/g. For the same compound, the Mean plasma concentration (Day 15, 1 h) was 2895 ± 884 ng/mL, the Mean retina concentration (Day 15, 1 h) was 2122 ± 376 ng/g and the “Mean Choroid-RPE concentration” value (Day 15, 6 h) was 4373 ± 1586 ng/g. For the same compound, the “Mean Iris-Ciliary Body concentration” value (Day 15, 6 h) was 8822 ± 2621 ng/g, the Mean plasma concentration (Day 15, 6 h) was 321 ± 70.0 ng/mL and the Mean retina concentration (Day 15, 6 h) was 725 ± 117 ng/g. For the same compound, the “Mean Choroid-RPE concentration” value (Day 15, 24 h) was 2097 ± 273 ng/g, the “Mean Iris-Ciliary Body concentration” value (Day 15, 24 h) was 5556 ± 2128 ng/g and the Mean plasma concentration (Day 15, 24 h) was 39.9 ± 4.45 ng/mL. For the same compound, the Mean retina concentration (Day 15, 24 h) was 265 ± 113 ng/g, the “Optic Nerve concentration” value (Day 15, 96 h) was “BLQ^b” and the Vitreous concentration (Day 15, 96 h) was “BLQ^c”. For the same compound, the “Mean Choroid-RPE concentration” value (Day 15, 96 h) was 873 ± 392 ng/g, the “Mean Iris-Ciliary Body concentration” value (Day 15, 96 h) was 2837 ± 1136 ng/g and the Mean plasma concentration (Day 15, 96 h) was “BLQ^a and BLQ”. The Mean retina concentration (Day 15, 96 h) was 32.3 ± 24.2 ng/g, the “Optic Nerve concentration” value (Day 15, 168 h) was “BLQ^b” and the Vitreous concentration (Day 15, 168 h) was “BLQ^c”. For the same compound, the “Mean Choroid-RPE concentration” value (Day 15, 168 h) was 645 ± 67.2 ng/g, the “Mean Iris-Ciliary Body concentration” value (Day 15, 168 h) was 2292 ± 445 ng/g and the Mean plasma concentration (Day 15, 168 h) was “BLQ^a and BLQ”. For the same compound, the Mean retina concentration (Day 15, 168 h) was 54.9 ± 7.28 ng/g, the “Optic Nerve concentration” value (Day 15, 240 h) was “BLQ^b” and the Vitreous concentration (Day 15, 240 h) was “BLQ^c”. The “Mean Choroid-RPE concentration” value (Day 15, 240 h) was 195 ± 41.5 ng/g, the “Mean Iris-Ciliary Body concentration” value (Day 15, 240 h) was 1624 ± 1275 ng/g and the Mean plasma concentration (Day 15, 240 h) was “BLQ^a and BLQ”. For the same compound, the Mean retina concentration (Day 15, 240 h) was 39.4 ± 20.1 ng/g, the AUC(0-t) [2] was 801000 ng·h/g and the “AUC(0-∞)” value [2] was 1220000 ng·h/g. For the same compound, the Tlast [2] was 240 h, the AUC(0-t) [3] was 4880 ng·h/g and the “AUC(0-∞)” value [3] was 5180 ng·h/g. The AUC(0-t) (Retina, 50 mg/kg BID, Day 15) was 30300 ng·h/g, the “AUC(0-∞)” value (Retina, 50 mg/kg BID, Day 15) was 35700 ng·h/g and the Tlast (Retina, 50 mg/kg BID, Day 15) was 240 h. The AUC(0-t) [4] was 419 ng·h/g, the “AUC(0-∞)” value [4] was 442 ng·h/g and the Tlast [4] was 24 h. For the same compound, the Cmax [5] was 8020 ng/g, the MRT last [5] was 68.6 h and the Tmax [5] was 1 h. The half-life [5] was 66.4 h, the Cmax [6] was 11500 ng/g and the MRT inf [6] was 138 h. It also gave an MRT last [6] of 88 h, a Tmax [6] of 1 h and a half-life [6] of 178 h. For the same compound, the Cmax [7] was 1550 ng/g and the MRT last [7] was 4.79 h.
